Assay results as given in US4465672A, “Stable S-adenosylmethionine salts, the process for their preparation, and therapeutic compositions which contain them as active principle” (Bioresearch S.p.A., priority 1981, dated 1984).
Where two headings read alike, the source gives them in different places.

Assays:
[1] = Residual moisture of the lyophilised salt; type: physicochemical
physchem = details: for DEGRADATION AT 45° C. AFTER 240 days: 5760 h; for DEGRADATION AT 45° C. AFTER 360 days: 8640 h; for DEGRADATION AT 45° C. AFTER 120 days: 2880 h; for DEGRADATION AT 45° C. AFTER 180 days: 4320 h; for DEGRADATION AT 45° C. AFTER 60 days: 1440 h
Experimental: The residual SAM percentage at the times indicated was determined by the new method described hereinafter, which ensures maximum accuracy of measurements in that it enables the SAM to be totally separated from all possible degradation products. The present method for determining the SAM is based on the use of HPLC.

[2] = Wide pharmacological screening trial; details: independent of the anion bonded to the SAM
[3] = prior art salts, cited from earlier work

Compound | residual moisture ([1]; Tables 1 to 4) [%] | DEGRADATION AT 45° C. AFTER 240 days (physchem) [%] | DEGRADATION AT 45° C. AFTER 360 days (physchem) [%] | also measured
C[S+](CCC(N)C(=O)[O-])CC1OC(n2cnc3c(N)ncnc32)C(O)C1O (stereo not drawn) [SAM.5CH3 --C6 H4 --SO3 H] | – | – | – | residual moisture ([1]; Tables 1 to 4, n=5): 1.5%
C[S+](CCC(N)C(=O)[O-])CC1OC(n2cnc3c(N)ncnc32)C(O)C1O (stereo not drawn) [SAM.n CH3 SO3 H, n=3] | 0.8 | 100 | 100 | –
C[S+](CCC(N)C(=O)[O-])CC1OC(n2cnc3c(N)ncnc32)C(O)C1O (stereo not drawn) [SAM.5CH3 SO3 H] | – | – | – | activity and toxicity characteristics [2]: highly interesting activity and toxicity characteristics; residual moisture ([1]; Tables 1 to 4, listed as SAM.n CH3 SO3 H, n=5): 1.5%; residual moisture ([1]; with or without lyophilisation support (Tables 5, 6)): 1.5%; degraded at 8640 h (physchem; DEGRADATION AT 45° C. AFTER 360 DAYS): 5%
C[S+](CCC(N)C(=O)[O-])CC1OC(n2cnc3c(N)ncnc32)C(O)C1O (stereo not drawn) [disulphatediparatoluene sulphonate, reference compound] | – | – | – | temperature up to which the salt is stable [3]: up to 45 °C
C[S+](CCC(N)C(=O)[O-])CC1OC(n2cnc3c(N)ncnc32)C(O)C1O (stereo not drawn) [SAM.n CH3 SO3 H, n=6] | 2 | – | – | –
C[S+](CCC(N)C(=O)[O-])CC1OC(n2cnc3c(N)ncnc32)C(O)C1O (stereo not drawn) [drawing 6, n=2] | 1.5 | – | – | –
C[S+](CCC(N)C(=O)[O-])CC1OC(n2cnc3c(N)ncnc32)C(O)C1O (stereo not drawn) [drawing 5, n=6] | 2 | – | – | –
C[S+](CCC(N)C(=O)[O-])CC1OC(n2cnc3c(N)ncnc32)C(O)C1O (stereo not drawn) [drawing 5, n=3] | 0.8 | 100 | 100 | temperature up to which the salt is stable ([3]; listed as triparatoluene sulphonate): up to 25 °C
C[S+](CCC(N)C(=O)[O-])CC1OC(n2cnc3c(N)ncnc32)C(O)C1O (stereo not drawn) [SAM.n CH3 SO3 H, n=2] | 0.5 | 100 | 100 | DEGRADATION AT 45° C. AFTER 120 days (physchem): 100%; DEGRADATION AT 45° C. AFTER 180 days (physchem): 100%
C[S+](CCC(N)C(=O)[O-])CC1OC(n2cnc3c(N)ncnc32)C(O)C1O (stereo not drawn) [SAM.1.5 H2 SO4.n CH3 SO3 H, n=2] | 1.5 | – | – | –
C[S+](CCC(N)C(=O)[O-])CC1OC(n2cnc3c(N)ncnc32)C(O)C1O (stereo not drawn) [drawing 5, n=4] | 1 | – | – | –
C[S+](CCC(N)C(=O)[O-])CC1OC(n2cnc3c(N)ncnc32)C(O)C1O (stereo not drawn) [SAM.n CH3 SO3 H, n=4] | 1 | – | – | –
C[S+](CCC(N)C(=O)[O-])CC1OC(n2cnc3c(N)ncnc32)C(O)C1O (stereo not drawn) [drawing 5, n=2] | 0.5 | 100 | 100 | DEGRADATION AT 45° C. AFTER 120 days (physchem): 100%; DEGRADATION AT 45° C. AFTER 180 days (physchem): 100%
C[S+](CCC(N)C(=O)[O-])CC1OC(n2cnc3c(N)ncnc32)C(O)C1O (stereo not drawn) [drawing 6, n=3] | 2 | – | – | –
C[S+](CCC(N)C(=O)[O-])CC1OC(n2cnc3c(N)ncnc32)C(O)C1O (stereo not drawn) [drawing 5, n=1] | 0.2 | 100 | 100 | DEGRADATION AT 45° C. AFTER 60 days (physchem): 100%; DEGRADATION AT 45° C. AFTER 120 days (physchem): 100%; DEGRADATION AT 45° C. AFTER 180 days (physchem): 100%
C[S+](CCC(N)C(=O)[O-])CC1OC(n2cnc3c(N)ncnc32)C(O)C1O (stereo not drawn) [SAM.1.5 H2 SO4.n CH3 SO3 H, n=1] | 1 | – | – | –
C[S+](CCC(N)C(=O)[O-])CC1OC(n2cnc3c(N)ncnc32)C(O)C1O (stereo not drawn) [drawing 6, n=1] | 1 | – | – | –
C[S+](CCC(N)C(=O)[O-])CC1OC(n2cnc3c(N)ncnc32)C(O)C1O (stereo not drawn) [SAM.1.5 H2 SO4.n CH3 SO3 H, n=3] | 2 | – | – | –
C[S+](CCC(N)C(=O)[O-])CC1OC(n2cnc3c(N)ncnc32)C(O)C1O (stereo not drawn) [SAM.n CH3 SO3 H, n=1] | 0.2 | 100 | 100 | DEGRADATION AT 45° C. AFTER 60 days (physchem): 100%; DEGRADATION AT 45° C. AFTER 120 days (physchem): 100%; DEGRADATION AT 45° C. AFTER 180 days (physchem): 100%
